Measured values taken from patent US8604047B2, “Method and composition for treating nodulocystic and conglobate acne vulgaris” (Elorac, Inc., priority 2010, dated 2013).

Key:
Format in all cases: in vivo, human
[1] = Daily oral or topical formulations of 5AR inhibitors in male patients with nodulocystic or conglobate acne
[2] = Oral administration to patients with conglobate acne (acne conglobata)
Protocol: Capsules containing 0.05 mg by weight of dutasteride are administered twice daily for 6 months to patients with conglobate acne.
A flavored oral solution incorporating a 0.75 mg by weight of dutasteride per every 5 ml of solution is administered to young patients with acne conglobata once daily for 24 weeks.
Tablets containing 0.1 mg by weight of finasteride are administered once daily for 12 weeks to patients with acne conglobata.

[3] = Topical cream applied to skin of patients with numerous acne papules, pustules, nodules and cysts; conditions: 5% dutasteride cream, once daily for 8 weeks, most patients
Protocol: A 5% dutasteride cream is prepared containing water, propylene glycol, bentonite, glycerol stearate, isopropyl myristate and cellulose gum, and applied once daily to the skin of patients with numerous acne papules, pustules, nodules and cysts for 8 weeks. After 8 weeks of such treatment, most patients will have at least a 20% decrease in the number of inflammatory acne lesions.

[4] = Oral administration to patients with nodulocystic acne; conditions: most patients
Protocol: Tablets containing 0.5 mg by weight of finasteride are administered once daily for 12 weeks to patients with nodulocystic acne.
Caplets containing 50 mg by weight of finasteride are administered once a week for 24 weeks to patients with severe nodulocystic acne.

[5] = Topical application by patients with nodulocystic acne
Source text: Patients with active nodulocystic acne apply 0.05% by weight finasteride prepared in an alcoholic gel containing 6% polyoxyethylene lauryl ether twice daily for 12 weeks.
An aqueous/alcohol solution containing 20% by weight finasteride is applied once daily by patients with nodulocystic acne.

Structure (SMILES)	improvement of nodulocystic or conglobate acne [1]	resolution of inflammatory nodules, cysts and sinus tracts ([2]; capsules 0.05 mg dutasteride, oral, twice daily for 6 months)	resolution of conglobate acne at end of treatment ([2]; oral solution 0.75 mg dutasteride per 5 ml, once daily for 24 weeks, young patients, some patients)	decrease in the number of inflammatory acne lesions [3] [%]	reduction in acne nodules and cysts ([4]; caplets 50 mg finasteride, once a week for 24 weeks, severe nodulocystic acne)	activity of inflammatory acne lesions at end of treatment ([4]; tablets 0.5 mg finasteride, once daily for 12 weeks)	old acne lesions by end of treatment ([2]; tablets 0.1 mg finasteride, oral, once daily for 12 weeks)	new acne lesions by end of treatment ([2]; tablets 0.1 mg finasteride, oral, once daily for 12 weeks, most patients)	nodules and cysts versus before starting treatment ([5]; 0.05% by weight finasteride alcoholic gel with 6% polyoxyethylene lauryl ether, twice daily for 12 weeks)	improvement in appearance after twelve weeks ([5]; aqueous/alcohol solution 20% by weight finasteride, once daily, twelve weeks, many patients)	improvement observed after two weeks ([5]; aqueous/alcohol solution 20% by weight finasteride, once daily, two weeks, most patients)
C[C@]12C=CC(=O)N[C@@H]1CC[C@@H]1[C@@H]2CC[C@]2(C)[C@@H](C(=O)Nc3cc(C(F)(F)F)ccc3C(F)(F)F)CC[C@@H]12 [dutasteride]	dramatic improvement	resolution of some of their inflammatory nodules, cysts and sinus tracts	complete resolution of their conglobate acne	≥ 20	–	–	–	–	–	–	–
CC(C)(C)NC(=O)[C@H]1CC[C@H]2[C@@H]3CC[C@H]4NC(=O)C=C[C@]4(C)[C@H]3CC[C@]12C [finasteride]	dramatic improvement	–	–	–	marked reduction in acne nodules and cysts	significant decrease in the activity of their inflammatory acne lesions	resolved with only minor scarring	very few new acne lesions	fewer nodules and cysts	dramatic improvement in their appearance	some improvement
